Consider 14 molecules from US20240117385A1, “ENZYMES OF LUCIFERIN BIOSYNTHESIS AND USE THEREOF” (LIGHT BIO, INC., priority 2018, published 2024).

The labels stand for the following.
B1: Neonothopanus nambi hispidin hydroxylase: isolated recombinant hispidin hydroxylase from Neonothopanus nambi (protein, listed as Neonothopanus nambi)
chain: MASFENSLSVLIVGAGLGGLAAAIALRRQGHVVKIYDSSSFKAELGAGLAVPPNTLRSLQQLGCNTENLNGVDNLCFTAMGYDGSVGMMNNMTDYREAYGTSWIMVHRVDLHNELMRVALDPGGLGPPATLHLNHRVTFCDVDACTVTFTNGTTQSADLIVGADGIRSTIRRFVLEEDVTVPASGIVGFRWLVQADALDPYPELDWIVKKPPLGARLISTPQNPQSGVGLADRRTIIIYACRGGTMVNVLAVHDDERDQNTADWSVPASKDDLFRVFHDYHPRFRRLLELAQDINLWQMRVVPVLKKWVNKRVCLLGDAAHASLPTLGQGFGMGLEDAVALGTLLPKGTTASQIETRLAVYEQLRKDRAEFVAAESYEEQYVPEMRGLYLRSKELRDRVMGYDIKVESEKVLETLLRSSNSA
B2: SEQ ID NO: 135: plant type III polyketide synthase (PKS) (protein, listed as Wachendorfia thyrsiflora)
chain: MASTEGIQAYRNNMAEGPATIMAIGTANPPNVVDASTFPDYYWRVTNSEHLSPEYRVKLKRICERSSIRKRHLVLTEQLLKENPTLTTYVDASYDERQSIVLDAVPKLACEAAAKAIKEWGRPKTDITHMVVCTGAGVDVPGVDYKMMNLLGLPPTVNRVMLYNVGCHASGTVLRIAKDLAENNKGARVLVVSSEVSVMFFRGPAEGDVEILLGQALFGDGSAAIIVGADPIEGVEKPIFQIFSASQMTLPEGEHLVAGHLRELGLTFHLKPQLPNTVSSNIHKPLKKAFEPLNITDWNSIFWIVHPGGRAILDQVQEKIGLEENKLDVSRYVLAENGNMMSASVFFIMDEMRKRSAAQGCSTTGEGHEWGVLFGFGPGLSIETVVLHSVPLSI

One series relates to hispidin-synthase and caffeylpyruvate hydrolase with Neonothopanus nambi luciferase and hispidin hydroxylase. The series can be described thus: Luminescence with recombinant hispidin-synthase, caffeylpyruvate hydrolase, luciferase and hispidin hydroxylase. The conditions noted are these: 0.2 μM. Type of series: biochemical. The procedure:
The obtained enzymes were used for obtaining luminescence (bioluminescence) in reaction with Neonothopanus nambi luciferase and hispidin hydroxylase, obtained according to Example 4. 5 μl of each isolated recombinant protein solution were put into a glass tube, comprising 100 μl of the buffer (0.2 M of Na-phosphate buffer, 0.5 M of Na2SO4, 0.1% dodecylmaltoside (DDM) pH 8.0), 1 mM of NADPH (Sigma-Aldrich, USA), 10 mM of ATP (ThermoFisher Scientific, USA), 1 mM of CoA (Sigma-Aldrich, USA), 1 mM of malonyl-CoA (Sigma-Aldrich, USA) and 0.2 μM of one of 3-arylacrylic acids: paracoumaric acid (Sigma-Aldrich, USA), cinnamic acid (Sigma-Aldrich, USA) or ferulic acid (Abcam, USA). In the other experiment instead of substituted 3-arylacrylic acid the analogues of fungal oxyluciferin—(2E,5E)-2-hydroxy-6-(4-hydroxyphenyl)-4-oxohexa-2,5-diene, (2E,5E)-2-hydroxy-4-oxo-6-phenylhexa-2,5-diene, or (2E,5E)-2-hydroxy-6-(4-hydroxy-3-methoxyphenyl)-4-oxohexa-2,5-diene acids—also at concentration of 0.2 μM were put into a glass tube. The glass tubes were placed into a luminometer.
With `O=C(/C=C/c1ccccc1)/C=C(/O)C(=O)O` [(2E,5E)-2-hydroxy-4-oxo-6-phenylhexa-2,5-diene acid], the luminescence in reaction result is recorded as “resulted in luminescence”. Still for that read-out and setting: then `COc1cc(/C=C/C(=O)/C=C(/O)C(=O)O)ccc1O` [(2E,5E)-2-hydroxy-6-(4-hydroxy-3-methoxyphenyl)-4-oxohexa-2,5-diene acid], with “resulted in luminescence”; and `O=C(/C=C/c1ccc(O)cc1)/C=C(/O)C(=O)O` [(2E,5E)-2-hydroxy-6-(4-hydroxyphenyl)-4-oxohexa-2,5-diene acid], with “resulted in luminescence”; and `O=C(O)/C=C/c1ccccc1` [cinnamic acid], with “resulted in luminescence”. On the same count and under the same terms, the entry for `COc1cc(/C=C/C(=O)O)ccc1O` [ferulic acid] is “resulted in luminescence”. Same read-out and setting: the entry for `O=C(O)/C=C/c1ccc(O)cc1` [paracoumaric acid] is “resulted in luminescence”.

The next series concerns recombinant hispidin hydroxylase from Neonothopanus nambi. Briefly: HPLC analysis of hydroxylation by recombinant hispidin hydroxylase. Type of series: biochemical. The conditions noted are these: 0.2 μM substrate, 1 mM NADPH, 30 minutes. As for the experimental part:
The isolated recombinant hispidin hydroxylase from Neonothopanus nambi, obtained according to Example 4, was added to reaction mixtures comprising 1 mM of NADPH and 0.2 μM of hispidin, (E)-4-hydroxy-6-styryl-2H-pyran-2-one or (E)-4-hydroxy-6-(4-hydroxystyryl)-2H-pyran-2-one in 100 μl of the buffer (0.2 M of Na-phosphate buffer, 0.5 M of Na2SO4, 0.1% dodecylmaltoside (DDM) pH 8.0). In 30 minutes, the reaction mixture was analyzed by HPLC using synthetic luciferins as standards.
As to `O=c1cc(O)cc(/C=C/c2ccc(O)cc2)o1` [(E)-4-hydroxy-6-(4-hydroxystyryl)-2H-pyran-2-one], the “HPLC detection of hydroxylated product” value was “occurrence of peaks corresponding to 3d position hydroxylated derivatives”. On the same count and under the same terms, then `O=c1cc(O)cc(/C=C/c2ccccc2)o1` [(E)-4-hydroxy-6-styryl-2H-pyran-2-one], with “occurrence of peaks corresponding to 3d position hydroxylated derivatives”.

The next series has as its system luciferase and hispidin hydroxylase of Neonothopanus nambi. The series can be described thus: Hispidin hydroxylase with hispidin analogues in cell lysate. Type of series: biochemical. The conditions noted are these: 660 μg/ml, 1 mM NADPH, pH 8.0. The procedure: HEK293NT cells, expressing luciferase and hispidin hydroxylase of Neonothopanus nambi, obtained according to Example 2, were rinsed from Petri dishes 24 hours after transfection with Versene solution laced with 0.025% of trypsin, the medium was replaced by phosphate-buffered saline with pH 8.0 by centrifugation, the cells were resuspended, lysed by ultrasound in Bioruptor (Diagenode, Belgium) with in 7 minutes at 0° C. in conditions recommended by the manufacturer, and 1 mM of NADPH (Sigma-Aldrich, USA), and also hispidin or one of its analogues were added to the medium: (E)-4-hydroxy-6-(4-hydroxystyryl)-2H-pyran-2-one, (E)-6-(2-(1H-indol-3-yl)vinyl)-4-hydroxy-2H-pyran-2-one, (E)-6-(2-(1,2,3,5,6,7-hexahydropyrido[3,2,1-ij]quinolin-9-yl)vinyl)-4-hydroxy-2H-pyran-2-one, E)-6-(4-(diethylamino)styryl)-4-hydroxy-2H-pyran-2-one, or (E)-4-hydroxy-6-(2-(6-hydroxynaphthalene-2-yl)vinyl)-2H-pyran-2-one at concentration of 660 μg/ml. Bioluminescence spectra were detected by spectrofluorometer Varian Cary Eclipse. […] Depending on luciferin used the expected displacement of luminescence peak was observed.
As for `O=c1cc(O)cc(/C=C/c2ccc3cc(O)ccc3c2)o1` [(E)-4-hydroxy-6-(2-(6-hydroxynaphthalene-2-yl)vinyl)-2H-pyran-2-one], the Luminescence in lysates entry was “Luminescence in lysates was observed”. The same measure, in the same setting: then `O=c1cc(O)cc(/C=C/c2ccc(O)cc2)o1` [(E)-4-hydroxy-6-(4-hydroxystyryl)-2H-pyran-2-one], with “Luminescence in lysates was observed”. For the molecule `O=c1cc(O)cc(/C=C/c2cc3c4c(c2)CCCN4CCC3)o1` [(E)-6-(2-(1,2,3,5,6,7-hexahydropyrido[3,2,1-ij]quinolin-9-yl)vinyl)-4-hydroxy-2H-pyran-2-one], the Luminescence in lysates result is “Luminescence in lysates was observed”. Still for that read-out and setting: then `O=c1cc(O)cc(/C=C/c2c[nH]c3ccccc23)o1` [(E)-6-(2-(1H-indol-3-yl)vinyl)-4-hydroxy-2H-pyran-2-one], with “Luminescence in lysates was observed”; and `CCN(CC)c1ccc(/C=C/c2cc(O)cc(=O)o2)cc1` [(E)-6-(4-(diethylamino)styryl)-4-hydroxy-2H-pyran-2-one], with “Luminescence in lysates was observed”.

Another series relates to recombinant hispidin hydroxylases. Briefly: Functionality test of isolated recombinant hispidin hydroxylases in luminometer. It counts as biochemical. The conditions noted are these: 0.2 μM hispidin, 1 mM NADPH, Neonothopanus nambi luciferase. The procedure:
Polyhistidine sequence (His tag) was operatively attached to 5′-end of nucleic acids coding hispidin-3-hydroxylases and luciferase from Neonothopanus nambi, obtained according to the examples 1 and 2. The obtained structures were cloned into pET-23 vector by means of restriction endonucleases BamHI and HindIII. The vector was used for transformation of Escherichia coli cells of BL21-DE3 strain. The cells were dispersed in Petri dishes with LB medium, comprising 1.5% of agar, 100 μg/ml of ampicillin, and incubated overnight at 37° C. Then, Escherichia coli colonies were transferred into 4 ml of liquid LB medium laced with ampicillin, incubated overnight at 37° C. with fluctuation. 1 ml of overnight culture was transferred into 100 ml of Overnight Express Autoinduction medium (Novagen), where ampicillin was preliminarily added to. The culture was grown at 37° C. within 2.5 hours until reaching optical density of 0.6 OE at 600 nm, and then it was grown at room temperature within 16 hours. […]
Aliquots of isolated recombinant hispidin hydroxylases were used for testing functionality and stability. […] In all cases the luminescence intensity when using hispidin was the highest when using Neonothopanus nambi hispidin hydroxylase and the lowest when using Armillaria mellea hispidin hydroxylase.
Take B1: the “luminescence intensity when using hispidin (comparison of hispidin hydroxylases)” value is listed as “highest”.

The test system of a further series is Pichia pastoris GS115 yeast cells expressing luciferase, hispidin hydroxylase and coumarate-CoA ligase 1. The series can be described thus: Screening of PKS for hispidin-synthase activity in yeast colonies sprayed with caffeic acid. Type of series: cell-based. The conditions noted are these: colonies sprayed with caffeic acid solution. The text has this:
The selected nucleotide sequences for expression in Pichia pastoris yeast cells and Nicotiana benthamiana plant cells were optimized. The resulting nucleic acids were obtained synthetically and cloned into pGAPZ vector and used for verifying ability of the expressed proteins to synthesize hispidin.
For this purpose, in genome of Pichia pastoris GS115 yeast line, constitutively expressing Neonothopanus nambi luciferase and hispidin hydroxylase, obtained according to Example 1, there was additionally introduced pGAPZ plasmid, comprising gene of
Arabidopsis thaliana coumarate-CoA ligase 1 (which nucleotide and amino acid sequence are shown in SEQ ID NOs: 140, 141), also obtained by oligonucleotide synthesis. The plasmid was linearized at restriction site AvrII and used for transformation into Pichia pastoris GS115 cells.
The obtained yeast cells, constitutively expressing Neonothopanus nambi luciferase and hispidin hydroxylase and Arabidopsis thaliana coumarate-CoA ligase 1, were […] by plasmids comprising coding PKS sequences, and dispersed in Petri dishes with RDB medium, comprising 1 M of sorbitol, 2% (weight/volume) of glucose, 1.34% (weight/volume) of yeast nitrogen base (YNB), 0.005% (weight/volume) of amino acids mixture, 0.00004% (weight/volume) of biotin and 2% (weight/volume) of agar. To identify enzymes having hispidin-synthase activity, the obtained colonies were sprayed with caffeic acid solution, detecting hispidin-synthase presence in cells by occurrence of luminescence. Luminescence emitted by colonies was detected by means of IVIS Spectrum CT (Perkin Elmer, USA). Yeast line constitutively expressing luciferase, hispidin hydroxylase and coumarate-CoA ligase 1, and also wild yeast cells were used as negative control. […] Amino acid sequences coded by then are shown in SEQ ID NOs: 119, 121, 123, 125, 127, 129, 131, 133, 135, 137, 139 respectively.
B2: the hispidin-synthase activity entry is “had hispidin-synthase activity”.
